In experiment [1] the test system is E. coli (ATCC 25922). The experiment is described as follows: Antibacterial activity against E. coli (MIC). Conditions: for MIC: Escherichia coli, ATCC25922. In kind it is cell-based.
Experiment [2] addresses DnaK (Escherichia coli, UniProt P0A6Y8). The experiment is described as follows: DnaK Inhibition Assay (DnaK induced refolding of denatured firefly luciferase). Conditions: DnaK 200 nM, DnaJ 100 nM, GrpE 400 nM. The class given is biochemical, E. coli. Here is the method:
Inhibition of the bacterial DnaK chaperone system may be evaluated by inhibition of the DnaK induced refolding of denatured firefly luciferase. More specifically, firefly luciferase is denatured by treatment with 8N guanidium hydrochloride at room temperature for 30 mins and then 5° C. for 1 h. After dilution into cold MOPS buffer augmented with ATP (2.5 mM) and DTT (12.5 mM) and standing for a further hour, the denatured luciferase is refolded by addition to a mixture of chaperone proteins in MOPS buffer, resulting in a reaction mixture containing denatured luciferase (24 nM), DnaK (200 nM), DnaJ (100 nM) and GrpE (400 nM). The extent of refolding is determined by addition of a luciferase substrate and measurement of the emitted chemoluminescence. In this format the substrate is the commercially available luciferase “Steady-Glo” reagent from Promega, Inc. Inhibition of DnaK induced refolding is determined by premixing the chaperone proteins with the test agent at concentrations of test agent ranging from 1-100 μg/mL. The extent of refolding is compared to that with no test reagent, and the IC50 is estimated by fitting the data to a standard sigmoidal dose-response curve.
Inhibition of the bacterial DnaK chaperone system was evaluated by inhibition of the DnaK induced refolding of denatured firefly luciferase. Firefly luciferase was denatured by treatment with 8N guanidium hydrochloride at room temperature for 30 mins and then 5° C. for 1 h. After dilution into cold MOPS buffer augmented with ATP (2.5 mM) and DTT (12.5 mM) and standing for a further hour, the denatured luciferase was refolded by addition to a mixture of chaperone proteins in MOPS buffer, resulting in a reaction mixture containing denatured luciferase (24 nM), DnaK (200 nM), DnaJ (100 nM) and GrpE (400 nM). The extent of refolding was determined by addition of a luciferase substrate and measurement of the emitted chemoluminescence. In this format the substrate is the commercially available luciferase “Steady-Glo” reagent from Promega, Inc. Inhibition of DnaK induced refolding was determined by premixing the chaperone proteins with the test agent at concentrations of test agent ranging from 1-100 μg/mL. The extent of refolding was compared to that with no test reagent, and the IC50 was estimated by fitting the data to a standard sigmoidal dose-response curve.
IC50 is defined as the concentration in μM at which 50% inhibition of DnaK induced refolding of denatured firefly luciferase occurs.

Setting [3] is: read-out: DnaK IC50(μg/ml) (converted).

Where a name gives a salt, the structure may show the parent alone. Read-outs that look alike come from different tables or passages of the source. Non-standard residues stand in square brackets, D forms with d. Residues, ends and D or L forms follow the SMILES beside them. ξ: configuration not given here. *: point of attachment. Phe(4-NH2) = Nc1ccc(C[C@H](N)C(=O)O)cc1; 2Nal = N[C@@H](Cc1ccc2ccccc2c1)C(=O)O; Hydrocinnamoyl = O=C(CCc1ccccc1)*; NH(CH2)3Ph = c1ccc(CCCN*)cc1; 2Pyrimidinyl = c1cnc(*)nc1; ξR = N=C(N)NCCCC(N)C(=O)O; Octanoyl = CCCCCCCC(=O)*; Orn = NCCC[C@H](N)C(=O)O; Piperidide = C1CCN(*)CC1; Cbz = O=C(OCc1ccccc1)*; Boc = CC(C)(C)OC(=O)*; Bn = c1ccc(C*)cc1; NHBu = CCCCN*

DnaK, sequence (P0A6Y8 2-638): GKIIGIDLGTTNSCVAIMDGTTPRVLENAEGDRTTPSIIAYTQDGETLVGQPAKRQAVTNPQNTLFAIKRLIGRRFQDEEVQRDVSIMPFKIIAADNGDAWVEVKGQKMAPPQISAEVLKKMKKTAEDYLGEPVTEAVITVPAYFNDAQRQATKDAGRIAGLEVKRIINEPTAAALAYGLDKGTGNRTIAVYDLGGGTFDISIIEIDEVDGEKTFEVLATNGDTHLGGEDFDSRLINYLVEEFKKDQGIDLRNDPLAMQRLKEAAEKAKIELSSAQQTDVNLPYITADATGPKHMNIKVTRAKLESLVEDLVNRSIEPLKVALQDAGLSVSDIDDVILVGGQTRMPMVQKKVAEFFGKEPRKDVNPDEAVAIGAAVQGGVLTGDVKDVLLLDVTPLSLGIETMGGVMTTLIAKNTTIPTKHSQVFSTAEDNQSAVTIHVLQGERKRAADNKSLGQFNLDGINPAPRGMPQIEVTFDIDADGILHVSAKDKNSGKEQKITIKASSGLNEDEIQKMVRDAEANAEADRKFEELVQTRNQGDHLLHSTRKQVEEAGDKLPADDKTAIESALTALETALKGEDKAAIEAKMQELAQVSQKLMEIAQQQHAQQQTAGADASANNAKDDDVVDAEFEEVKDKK

For the molecule “3-(Octylamido)-nicotinoyl-Tyr(Bzl)-Leu-Pro-Arg-OMe trifluoroacetate [Structure 31]”, the “E. coli (ATCC 25922) MIC” value in experiment [1] (ATCC 25922) is 32 µg/mL. Also, the “DnaK IC50(μg/ml)” value in experiment [2] is 10 µg/mL. Further, in experiment [2] (read-out: DnaK IC50), the IC50 was found to be 10 µM.
Take `CC(=O)N[C@@H](Cc1ccc(O)cc1)C(=O)N[C@@H](CC(C)C)C(=O)N1CCC[C@H]1C(=O)N[C@@H](CCCNC(=N)N)C(=O)N1CCCCC1` [Structure 4, Ac-Tyr-Leu-Pro-Arg-N(CH2)5.TFA] (Ac-YLPR-Piperidide): the results for the IC50 in experiment [2] (read-out: DnaK IC50) and in experiment [2] (setting [3]) were 3 µM and 6.09 µM, respectively.
The like results for `CC(=O)N[C@@H](Cc1ccc(OCc2ccccc2)cc1)C(=O)N[C@@H](CC(C)C)C(=O)N1CCC[C@H]1C(=O)NCCCCN` [Structure 5, Ac-Tyr(Bzl)-Leu-Pro-NH(CH2)4NH2.TFA] were, in that order, 45 µM and 106 µM.
Regarding `COC(=O)[C@@H]1CCCN1C(=O)[C@H](CC(C)C)NC(=O)[C@H](Cc1ccc(NC(=O)OCc2ccccc2)cc1)NC(C)=O` [Structure 6, Ac-4-(NHCbz)Phe-Leu-Pro-OMe] (Ac-[Phe(4-NH2)](Cbz)-Leu-Pro-OMe), the results for the IC50 in experiment [2] (read-out: DnaK IC50) and in experiment [2] (setting [3]) were 147 µM and 420 µM, respectively.
The matching figures for `CC(=O)N[C@@H](Cc1ccc(NC(=O)OCc2ccccc2)cc1)C(=O)N[C@@H](CC(C)C)C(=O)N1CCC[C@H]1C(=O)O` [Structure 7, Ac-4-(NHCbz)Phe-Leu-Pro-OH] (Ac-[Phe(4-NH2)](Cbz)-Leu-Pro-OH): 72 µM and 224 µM.
The like results for `COC(=O)[C@@H]1CCCN1C(=O)[C@H](CC(C)C)NC(=O)[C@H](Cc1ccc2ccccc2c1)NC(C)=O` [Structure 8, Ac-2-Nal-Leu-Pro-OMe] (Ac-[2Nal]-Leu-Pro-OMe) were, in that order, 30 µM and 127 µM.
The matching figures for `CC(=O)N[C@@H](Cc1ccc2ccccc2c1)C(=O)N[C@@H](CC(C)C)C(=O)N1CCC[C@H]1C(=O)O` [Structure 9] (Ac-[2Nal]-Leu-Pro-OH): 62 µM and 282 µM.
For the molecule `CC(C)C[C@H](NC(=O)[C@H](Cc1ccc(O)cc1)NC(=O)OC(C)(C)C)C(=O)N1CCC[C@H]1C(=O)N[C@@H](CCCNC(=N)N)C(=O)N1CCC[C@H]1C(=O)NCCCc1ccccc1` [Structure 12, Boc-Tyr-Leu-Pro-Arg-Pro-NH(CH2)3Ph] (Boc-YLPRP-{NH(CH2)3Ph}), the IC50 in experiment [2] (read-out: DnaK IC50) is 11 µM; in experiment [2] (setting [3]), 12.8 µM.
The matching figures for `CC(C)C[C@H](NC(=O)CCc1ccccc1)C(=O)N1CCC[C@H]1C(=O)N[C@@H](CCCNC(=N)N)C(=O)N1CCCCC1` [Structure 13, Ph(CH2)2C(O)-Leu-Pro-Arg-N(CH2)5] (Hydrocinnamoyl-Leu-Pro-Arg-Piperidide): 12 µM and 29.1 µM.
On to `CC(=O)N[C@@H](Cc1ccc(OCc2ccccc2)cc1)C(=O)N[C@@H](CC(C)C)C(=O)N1CCC[C@H]1C(=O)N[C@@H](CCCNC(=N)N)C(=O)N1CCCCC1` [Structure 14] (Ac-Y(Bn)LPR-Piperidide), for which the IC50 in experiment [2] (read-out: DnaK IC50) is 25 µM; in experiment [2] (setting [3]), 37.5 µM.
The like results for `CCCCNC(=O)[C@@H]1CCCN1C(=O)[C@H](CCCNC(=N)N)NC(=O)[C@@H]1CCCN1C(=O)[C@H](CC(C)C)NC(=O)[C@H](Cc1ccc(O)cc1)NC(C)=O` [Structure 15, Ac-Tyr-Leu-Pro-Arg-Pro-NHBu.TFA] (Ac-YLPRP-NHBu) were, in that order, 24 µM and 39.1 µM.
As for `CC(=O)N[C@@H](Cc1ccc(O)cc1)C(=O)N[C@@H](CC(C)C)C(=O)N1CCC[C@H]1C(=O)N[C@@H](CCCNC(=N)N)C(=O)N1CCC[C@H]1C(=O)NCCCc1ccccc1` [Structure 16, Ac-Tyr-Leu-Pro-Arg-Pro-NH(CH2)3Ph.TFA] (Ac-YLPRP-{NH(CH2)3Ph}), the figures for the IC50 in experiment [2] (read-out: DnaK IC50) and in experiment [2] (setting [3]) were 24 µM and 32.3 µM, respectively.
The matching figures for `CC(=O)N[C@@H](Cc1ccc(OCc2ccccc2)cc1)C(=O)N[C@@H](CC(C)C)C(=O)N1CCC[C@H]1C(=O)N[C@@H](CCCNC(=O)OC(C)(C)C)C(=O)N1CCC[C@H]1C(=O)NCCCc1ccccc1` [Structure 17, Ac-Tyr(Bzl)-Leu-Pro-Orn(Boc)-Pro-NH(CH2)3Ph] (Ac-Y(Bn)LP[Orn](Boc)P-{NH(CH2)3Ph}): 21 µM and 20 µM.
The matching figures for `CC(=O)N[C@@H](Cc1ccc(O)cc1)C(=O)N[C@@H](CC(C)C)C(=O)N1CCC[C@H]1C(=O)N[C@@H](CCCNC(=O)OC(C)(C)C)C(=O)N1CCC[C@H]1C(=O)NCCCc1ccccc1` [Structure 18, Ac-Tyr-Leu-Pro-Orn(Boc)-Pro-NH(CH2)3Ph] (Ac-YLP[Orn](Boc)P-{NH(CH2)3Ph}): 54 µM and 63.8 µM.
The like results for `CC(=O)N[C@@H](Cc1ccc(O)cc1)C(=O)N[C@@H](CC(C)C)C(=O)N1CCC[C@H]1C(=O)N[C@@H](CCCN)C(=O)N1CCC[C@H]1C(=O)NCCCc1ccccc1` [Structure 19, Ac-Tyr-Leu-Pro-Orn-Pro-NH(CH2)3Ph] (Ac-YLP[Orn]P-{NH(CH2)3Ph}) were, in that order, 40 µM and 60.4 µM.
Take `CC(=O)N[C@@H](Cc1ccc(OCc2ccccc2)cc1)C(=O)N[C@@H](CC(C)C)C(=O)N1CCC[C@H]1C(=O)N[C@@H](CCCN)C(=O)N1CCC[C@H]1C(=O)NCCCc1ccccc1` [Structure 20, Ac-Tyr(Bzl)-Leu-Pro-Orn-Pro-NH(CH2)3Ph] (Ac-Y(Bn)LP[Orn]P-{NH(CH2)3Ph}): the IC50 was 16 µM in experiment [2] (read-out: DnaK IC50) and 20 µM in experiment [2] (setting [3]).
The like results for `CC(=O)N[C@@H](Cc1ccc(OCc2ccccc2)cc1)C(=O)N[C@@H](CC(C)C)C(=O)N1CCC[C@H]1C(=O)N[C@@H](CCCNc1ncccn1)C(=O)N1CCC[C@H]1C(=O)NCCCc1ccccc1` [Structure 21, Ac-Tyr(Bzl)-Leu-Pro-Orn(2-pyrimidine)-Pro-NH(CH2)3Ph] (Ac-Y(Bn)LP[Orn](2Pyrimidinyl)P-{NH(CH2)3Ph}) were, in that order, 22 µM and 22.6 µM.
The like results for `CCC(C)[C@H](NC(=O)[C@H](Cc1ccc(O)cc1)NC(C)=O)C(=O)N[C@@H](CO)C(=O)OC` (stereo partly drawn) [Structure 23, Ac-Tyr-Ile-Ser-OMe] were, in that order, 101 µM and 530 µM.
The matching figures for `CCC(C)[C@H](NC(=O)[C@H](Cc1ccc(O)cc1)NC(C)=O)C(=O)N[C@@H](CO)C(=O)O` (stereo partly drawn) [Structure 24, Ac-Tyr-Ile-Ser-OH]: 240 µM and 309 µM.
Turning to `CCCCCCCC(=O)N[C@H](Cc1ccc(OCc2ccccc2)cc1)C(=O)N[C@@H](CC(C)C)C(=O)N1CCC[C@H]1C(=O)N[C@H](CCCNC(=N)N)C(=O)OC` [Structure 25, Octanoyl-(D)-Tyr(Bzl)-Leu-Pro-Arg-OMe trifluoroacetate] (Octanoyl-[dY](Bn)LP[dR]-OMe), the MIC in experiment [1] is 128 µg/mL. In addition, the IC50 was 20 µM in experiment [2] (read-out: DnaK IC50) and 23.1 µM in experiment [2] (setting [3]).
The like results for `CCCCCCCC(=O)N[C@@H](Cc1ccc(OCc2ccccc2)cc1)C(=O)N[C@@H](CC(C)C)C(=O)N1CCC[C@H]1C(=O)N[C@H](CCCNC(=N)N)C(=O)OC` [Structure 26, Octanoyl-Tyr(Bzl)-Leu-Pro-Arg-OMe trifluoroacetate] (Octanoyl-Y(Bn)LP[dR]-OMe) were, in that order, 32 µg/mL, 30 µM and 34.7 µM.
Take `CCCCCCCC(=O)N[C@@H](Cc1ccc(O)cc1)C(=O)N[C@@H](CC(C)C)C(=O)N1CCC[C@H]1C(=O)N[C@H](CCCNC(=N)N)C(=O)N1CCCCC1` [Structure 27, Octanoyl-Tyr-Leu-Pro-Arg-N(CH2)5 trifluoroacetate] (Octanoyl-YLP[dR]-Piperidide): the results for the IC50 in experiment [2] (read-out: DnaK IC50) and in experiment [2] (setting [3]) were 8 µM and 9.45 µM, respectively.
On to `CCCCCCCC(=O)N[C@@H](Cc1ccc(OCc2ccccc2)cc1)C(=O)N[C@@H](CC(C)C)C(=O)N1CCC[C@H]1C(=O)N[C@H](CCCNC(=N)N)C(=O)N1CCCCC1` [Structure 28, Octanoyl-Tyr(Bzl)-Leu-Pro-Arg-N(CH2)5 trifluoroacetate] (Octanoyl-Y(Bn)LP[dR]-Piperidide), for which the minimum inhibitory concentration (MIC) in experiment [1] stood at 32 µg/mL. Moreover, the IC50 in experiment [2] (read-out: DnaK IC50) is 13 µM; in experiment [2] (setting [3]), 14.4 µM.
In the case of `CC(=O)N[C@@H](Cc1ccc(O)cc1)C(=O)N[C@@H](CC(C)C)C(=O)N1CCC[C@H]1C(=O)NC(CCCNC(=N)N)C(N)=O` (some centres unmarked) [Structure 34] (Ac-YLP[ξR]-NH2), the MIC in experiment [1] was over 256 µg/mL.
Turning to “Ac-YLPRP-NH2 [Structure 1, Ac-Tyr-Leu-pro-Arg-Pro-NH2]”, the results for the IC50 in experiment [2] (read-out: DnaK IC50) and in experiment [2] (setting [3]) were 58 µM and 67.1 µM, respectively.

In general, MIC refers to the lowest concentration that inhibits growth of the organism. A low value points to greater potency.

For the origin of these results see patent US20100087466A1, “NOVEL SMALL MOLECULE DNAK INHIBITORS” (priority 2008, published 2010).
